Data taken from patent US12151998B2, “Solid drug form of N-(2,6-bis(1-methylethyl)phenyl)-N′-((1-(4-(dimethylamino)phenyl)cyclopentyl)methyl)urea hydrochloride and compositions, methods and kits related thereto” (The Regents of the University of Michigan, priority 2014, dated 2024).
Counter-ions that a name gives are not always drawn.

Columns and labels:
ACC = conditions: cited from earlier work
[1] = Enhanced exposure with stomach acidification: pharmacokinetics of ATR-101 tablets in dogs; type: in vivo; conditions: male beagle dogs, single 125 mg ATR-101 tablet oral; pretreated with pentagastrin compared to pretreatment with famotidine
Procedure: To examine pharmacokinetics and exposures of ATR-101 tablets prepared according to Example 6, an in vivo study was carried out in dogs following pretreatment with pentagastrin to decrease stomach pH, or famotidine to increase the stomach pH.
The same cohort of dogs was used in both treatments and included a 5-day wash-out between the treatment arms. Male beagle dogs (approximately 6.5-12.5 kg, n=6) were fasted overnight prior to dosing and through the first 4 hours of blood sample collection. For the pentagastrin arm, the animals were pretreated with a single intramuscular injection of pentagastrin (0.06 mg/mL at a dose level of […] and a dose volume of 0.01 mL/kg) 16 to 22 minutes prior to test article administration. For the famotidine arm, animals were pretreated with a single oral tablet dose of 20 mg famotidine at 59 to 60 minutes prior to tablet administration.
Following tablet administration, each animal received 30 mL of tap water via oral gavage. Animals were treated with a single 125 mg ATR-101 tablet by oral administration. The tablet was made as described in Example 6 above, and contained the ingredients listed in Table 6, but with the amount of ATR-101 at 125 mg (as free base) rather than 500 mg and the remaining ingredients reduced by the same weight percentage. […] ATR-101 concentrations were determined by LC/MSMS.

SMILES	delay of disease progression (average) (ACC; ACC patients that derive a therapeutic benefit)	patients with increased progression-free survival (ACC; ACC patients, fraction of patients)	increase in systemic exposure [1]
Clc1ccc(C(c2ccccc2Cl)C(Cl)Cl)cc1 (stereo not drawn) [mitotane]	five	one-quarter to one-third	
CC(C)c1cccc(C(C)C)c1NC(=O)NCC1(c2ccc(N(C)C)cc2)CCCC1 [ATR-101, N-(2,6-bis(1-methylethyl)phenyl)-N′-((1-(4-(dimethylamino)phenyl)cyclopentyl)methyl)urea hydrochloride]			57%
